The values below come from patent EP4799624A2 (priority 2021, dated 2023).

This data set can be described thus: in vivo. To be noted: mouse, po.

As for `Cc1c(-c2ccc(O)cc2)n(Cc2ccc(OCCN3CCCCC3)cc2)c2ccc(O)cc12` [Pipendoxifene, 2-(4-hydroxyphenyl)-3-methyl-1-[[4-(2-piperidin-1-ylethoxy)phenyl]methyl]indol-5-ol], the NOAEL (commonly the highest dose or exposure tested at which no adverse effect was seen) was ≥ 750 mg/kg/day.
